The values below come from ChEMBL document CHEMBL1128976, “Unsaturated thioacetic acids as novel mechanism-based inhibitors of peptidylglycine -hydroxylating monooxygenase” (Bioorg Med Chem Lett, 1996).

In the assay the target is T1, Peptidyl-glycine alpha-amidating monooxygenase (Homo sapiens) (UniProt P19021).
T1 sequence (whole entry): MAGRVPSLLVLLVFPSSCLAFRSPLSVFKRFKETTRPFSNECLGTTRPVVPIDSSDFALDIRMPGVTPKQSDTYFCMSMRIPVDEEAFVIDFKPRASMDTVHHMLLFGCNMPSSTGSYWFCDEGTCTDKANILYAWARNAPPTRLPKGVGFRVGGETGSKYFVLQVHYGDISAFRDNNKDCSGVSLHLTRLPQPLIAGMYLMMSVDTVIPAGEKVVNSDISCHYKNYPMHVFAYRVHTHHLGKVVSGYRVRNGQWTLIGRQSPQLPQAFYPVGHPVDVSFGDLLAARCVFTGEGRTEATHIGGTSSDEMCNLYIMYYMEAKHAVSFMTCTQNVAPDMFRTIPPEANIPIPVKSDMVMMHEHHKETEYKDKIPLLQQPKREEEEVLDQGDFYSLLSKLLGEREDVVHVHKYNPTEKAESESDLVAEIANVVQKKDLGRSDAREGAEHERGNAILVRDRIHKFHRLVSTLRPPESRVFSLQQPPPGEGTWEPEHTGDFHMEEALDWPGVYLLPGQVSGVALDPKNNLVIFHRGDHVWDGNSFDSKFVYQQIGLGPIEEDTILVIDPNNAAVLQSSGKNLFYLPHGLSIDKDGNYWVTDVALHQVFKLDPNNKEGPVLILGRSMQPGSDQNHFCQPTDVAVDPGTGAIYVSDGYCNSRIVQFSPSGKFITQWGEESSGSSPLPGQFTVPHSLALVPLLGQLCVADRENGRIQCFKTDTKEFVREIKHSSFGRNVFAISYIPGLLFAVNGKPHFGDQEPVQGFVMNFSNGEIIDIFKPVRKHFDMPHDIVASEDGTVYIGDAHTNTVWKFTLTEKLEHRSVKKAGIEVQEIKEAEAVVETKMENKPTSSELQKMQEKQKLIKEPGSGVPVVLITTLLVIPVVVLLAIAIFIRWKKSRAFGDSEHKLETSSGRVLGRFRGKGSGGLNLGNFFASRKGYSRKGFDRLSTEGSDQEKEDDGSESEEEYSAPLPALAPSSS
Kind of assay: Kinetic constant for inhibition of peptidylglycine alpha hydroxylating monooxygenase (PHM) was determined. Particulars: Equus caballus.

Take `O=C(O)CS/C=C/c1ccccc1`: the K inact worked out at 0.2 min⁻¹.

In turn, `O=C(O)CSC#Cc1ccccc1` displayed a K inact of 0.06 min⁻¹.
